B1: Amuc_1409: SEQ ID NO: 15, functional fragment obtained by eliminating the leader sequence from SEQ ID NO: 14; protein derived from Akkermansia muciniphila (protein)
chain: IPESSVPAAAVSSIKGAYPNAGPIEWDSEMHGMERIYEAEFRINGFQFDVKIAPDGKIVRIKEEIAASSLPEAVRASVLKRYPGCRIKEAEKITEGELVRYKVEVADSRDDYDVLIAPDGNILHVDR
modifications: Amuc_1409_fragment
notes: protein derived from Akkermansia muciniphila

Tests used:
[1] = system: depression and anxiety model; test: LPS-induced depression and anxiety model (TST, FST, EPM); format: in vivo, C57BL/6J mice; settings: vs PBS buffer group; for Ifnγ mRNA expression in brain tissue (hippocampus) / Il-10 mRNA expression in brain tissue (hippocampus): RT-qPCR; for immobility time in forced swim test / immobility time in tail suspension test: oral, LPS-induced
Method: By Daehan Biolink, 7-week-old male C57BL/6J mice weighing 20-22 g were supplied, and the animals were sufficiently supplied with solid feed and water until the day of the experiment, acclimatized for 1 week while maintaining an environment with a temperature of 22° C. 2° C., a humidity of 55%±15%, and a 12-hour light/dark cycle, and then used in the experiment. From 3 days before inducing depression and anxiety, the peptide was dissolved in PBS buffer and orally administered to the mice by 150 μL per animal at the same time once a day. Amuc_1409 or PEP001, PEP002, PEP003, PEP004, or PEP005 was dissolved in PBS buffer at a concentration of 6.7 μM and then used, and novel tetrapeptides PEP006, PEP007, PEP008, PEP009, and PEP010 and novel tripeptides PEP011, PEP012, and PEP013 were each dissolved in PBS buffer at a concentration of 0.2 μg/150 μL and then used. On the 3rd day of peptide administration, lipopolysaccharide (LPS) dissolved in PBS buffer was intraperitoneally injected at a concentration of 0.8 mg/kg to induce depression and anxiety. Tail suspension test (TST) and forced swim test (FST) were conducted to analyze the effect on depression. As the TST, a tail suspension device was installed in an open white acrylic box of 20 cm×25 cm×30 cm size, and the mouse was suspended upside down at a height where the mouse's tail would not touch the floor, and then the time for which the mouse maintained immobility while observing in the same environment was measured for 6 minutes. […] Water at around 25° C. was filled in a transparent acrylic cylinder (45 cm depth×18 cm diameter) up to 30 cm from the bottom, the mouse was exposed to water, and the time for which the mouse maintained immobility while swimming was measured for 6 minutes. […] An elevated plus-maze (EPM) test was performed to analyze the effect on anxiety level. The EPM device consists of two open arms (50 cm×10 cm) and two […] (50 cm×10 cm) at a height of 50 cm from the floor, and the arms are connected by a central area of 10 cm×10 cm. At the start of the experiment, the mouse was placed in the center of the maze and the time for which the mouse stayed in the open arm was measured for a total of 5 minutes using a video camera, and the percentage of time spent in the open arm was calculated and recorded [(time spent in open arm/time spent in open and closed arms)×100]. In addition, in order to examine the anti-inflammatory activity according to the administration of Amuc_1409 and PEP001, PEP002, PEP003, PEP004, and PEP005 in an animal model of depression and anxiety, the expression of Ifnγ and Il-10 mRNA, which are major inflammatory genes related to depression, in brain tissue (hippocampus) was examined.

[2] = system: TPA-induced dermatitis model; test: TPA-induced dermatitis (ear) model; format: in vivo, C57BL/6J mice; settings: vs PBS buffer group; for ear thickness / ear weight / erythema and swelling of the ear (macro photograph): 26 hours after TPA application
Method: As a dermatitis model, one day before sample application, both ears of 8-week-old male C57BL/6J mice were shaved, 2.5 μg of TPA (12-otetrade-canoyl-phorbol-13-acetate) dissolved in 25 μL acetone was applied to the right ear of the mouse to induce skin swelling and inflammation, and the left ear was coated with 25 μL of acetone, which is a TPA solvent, and used as a negative control. From 3 days before TPA application, Amuc_1409 or PEP001 to PEP013 were each dissolved in PBS buffer at a concentration of 6.7 μM, and then injected into the abdominal cavity of mice by 150 μL per animal once a day at the same time. On day 3 (0 days) after administration of the peptide, the peptide was injected intraperitoneally one time 30 minutes before TPA application, and the drug was additionally injected intraperitoneally 3 hours after TPA injection. Into the control group, the same volume of PBS buffer was intraperitoneally injected, and the experiment was terminated 26 hours after TPA application. 26 hours after TPA application, the ear thickness was measured and photographs of both ears for each test group were taken in order to examine the degree of swelling and inflammation relief in the ears. After the test animal was sacrificed, the weight per area of the ear was measured, the ears of mice were fixed in 10% neutral buffered formalin at room temperature for 24 hours or more, and then embedded in paraffin to prepare 5 μm-thick sections, and the sections were stained with hematoxylin and eosin (H&E). The degrees of swelling of the ear and inflammatory cell infiltration were examined by observing the H&E-stained tissue section under an optical microscope.

[3] = system: C57BL/6 mice with telogen hair; test: Hair growth promotion on shaved dorsal skin; format: in vivo; settings: vs vehicle
Method: In order to examine the hair growth promoting efficacy, 8-week-old C57BL/6 mice with telogen hair having pink dorsal skin were used. The mice were anesthetized, then the hair on the back of the mouse was removed using an electric hair clipper for animals. Amuc_1409 was dissolved in vehicle (50% ethanol, 20% propylene glycol, 30% water) at a concentration of 3.2 μM and then applied to the skin of the hair-removed site by 200 μL per animal using a pipette once a day for 21 days, and PEP006 to PEP013 were each dissolved in vehicle (50% ethanol, 20% propylene glycol, 30% water) at a concentration of 30 μM and then applied to the skin of the hair-removed site by 200 μL per animal using a pipette once a day for 28 days. For the control group, the same volume of vehicle (50% ethanol, 20% propylene glycol, 30% water) was applied to the skin.
Skin color and hair density were visually observed, scored according to the scoring criteria in Table 5, and graphed (Table 5).
After the experiment, the test animals were sacrificed, then the skin tissue of the mouse was fixed in 10% NBF at room temperature for 24 hours or more, and then embedded in paraffin to prepare a 5 μm-thick section, and the section was stained with (H&E) hematoxylin and eosin. The histological changes of the hair follicle tissue in the H&E-stained tissue sections were observed under an optical microscope. The number and depth of hair follicles and the thicknesses of dermis and subcutis were measured under an optical microscope, and the hair growth cycle was evaluated. The number of hair follicles was calculated by counting the number of hair follicles present in the subcutaneous tissue under a 100-magnification optical microscope. Changes in the depth of hair follicles and the thicknesses of dermis and subcutis were measured using the Image J program using a scale bar.

[4] = day 28 after application, 30 μM topical

| Molecule | Ifnγ mRNA expression in brain tissue (hippocampus) [1] | Il-10 mRNA expression in brain tissue (hippocampus) [1] | immobility time in forced swim test [1] | immobility time in tail suspension test [1] | time spent in the open arm, elevated plus-maze test [1] | ear thickness [2] | ear weight [2] | erythema and swelling of the ear (macro photograph) [2] | proportion of the area where hair grew out to the total area (hair growth score) [3, 4] | further results |
| --- | --- | --- | --- | --- | --- | --- | --- | --- | --- | --- |
| AVSSI (PEP002) | significantly decreased | significantly increased | significantly decreased | significantly decreased | increased | significantly decreased | significantly decreased | significantly reduced |  |  |
| VGAY (PEP010) |  |  | tended to decrease | decreased |  |  |  |  |  |  |
| AQS [PEP011] |  |  | tended to decrease | decreased |  |  |  |  | tended to increase |  |
| AIS [PEP013] |  |  | tended to decrease | decreased |  |  |  |  | tended to increase |  |
| GAY [PEP005] | significantly decreased | significantly increased | significantly decreased | significantly decreased | increased | significantly decreased | significantly decreased | significantly reduced |  |  |
| AVSSIKGAY (PEP001) | significantly decreased | significantly increased | significantly decreased | significantly decreased | increased | significantly decreased | significantly decreased | significantly reduced |  |  |
| AVS (AVSSIKGAY) [PEP004] | significantly decreased | significantly increased | significantly decreased | significantly decreased | increased | significantly decreased | significantly decreased | significantly reduced |  |  |
| KGAY (PEP003) | significantly decreased | significantly increased | significantly decreased | significantly decreased | increased | significantly decreased | significantly decreased | significantly reduced |  |  |
| AGAY (PEP006) |  |  | tended to decrease | decreased |  |  |  |  | tended to increase |  |
| AGS [PEP012] |  |  | tended to decrease | decreased |  |  |  |  | tended to increase |  |
| RGAY (PEP007) |  |  | tended to decrease | decreased |  |  |  |  | tended to increase |  |
| SGAY (PEP009) |  |  | tended to decrease | decreased |  |  |  |  | tended to increase |  |
| IGAY (PEP008) |  |  | tended to decrease | decreased |  |  |  |  | tended to increase |  |
| B1 | decreased | increased | significantly decreased | significantly decreased | increased | tended to decrease | significantly decreased | reduced overall |  | ear tissue swelling and inflammatory cell infiltration (H&E) [2]: significantly reduced; depth of the hair follicle ([3]; H&E): significantly increased; number of hair follicles present in the subcutaneous fat layer ([3]; H&E): significantly increased; proportion of hair in the anagen phase ([3]; H&E): significantly increased; thickness of dermis ([3]; H&E): significantly increased; thickness of subcutis ([3]; H&E): significantly increased; proportion of the area where hair grew out to the total area (hair growth score) ([3]; day 21 after application, 3.2 μM topical): significantly increased |
